Measurements published in US20080058300A1, “Induction of weight loss and the selective inhibition of PTP1B” (priority 2006, published 2008).

Tests used:
[1] = tested on: male AKR/J mice on 60% fat diet; test: Histology of adipose tissue in mice on 60% fat diet; type: in vivo; settings: mouse on 60% fat diet; i.p. q7dx4, 10 then 5 mg/kg
From the text: (§1) Mice and Study Design. At weaning, male AKR/J mice from Jackson Laboratories (Bar Harbor, Me., USA) were placed on a 10%, 45%, or 60% fat kcal diet (Research Diets, Inc., New Brunswick, N.J., USA). Mice were weighed weekly and treatment began after 13-14 weeks of access to the different fat diets. Immediately before the start of treatment, mice from all three diets were randomly subdivided further into three groups within the same fat composition diet with an even weight distribution. All mice were dosed (i.p. route) on a q7dx4 schedule, where the first dose of 1436 was 10 mg/kg and all remaining doses were 5 mg/kg. Saline-treated animals were administered 10 mL/kg. Pair-fed animals were dosed with saline (10 mL/kg) on the same q7dx4 schedule on a 1-day stagger from the other groups. As a measure of food consumption, remaining food was weighed daily. Pair-fed groups were allotted the exact amount of food consumed by 1436-treated groups in the 24 hours prior. All procedures involving mice were performed in accordance with protocols approved by the Institutional Animal Care and Use Committee.
Histology. Intrascapular brown adipose tissue was fixed in 10% zinc formalin (Fisher Scientific, Kalamazoo, Mich., USA) for 48 hours and transferred to 70% EtOH. Tissues were embedded in paraffin and […] sections were applied to glass microscope slides. […]

[2] = tested on: male AKR/J mice on 10%, 45% or 60% fat kcal diet; test: Induction of weight loss in diet induced obese mice; type: in vivo
From the text: as §1

[3] = target: T1, Norepinephrine Transporter (NET) (Homo sapiens, UniProt P23975); test: Radioligand binding assay, [125I] RTI-55, Norepinephrine Transporter; settings: human recombinant, MDCK cell membranes; [125I] RTI-55 0.20 nM; 3 hours at 4° C.; read-out: ˜IC50, inhibition of binding to NET
T1 construct: expressed in transfected cells; host or cells: MDCK cells (membrane preparations)
T1 sequence (P23975 whole entry): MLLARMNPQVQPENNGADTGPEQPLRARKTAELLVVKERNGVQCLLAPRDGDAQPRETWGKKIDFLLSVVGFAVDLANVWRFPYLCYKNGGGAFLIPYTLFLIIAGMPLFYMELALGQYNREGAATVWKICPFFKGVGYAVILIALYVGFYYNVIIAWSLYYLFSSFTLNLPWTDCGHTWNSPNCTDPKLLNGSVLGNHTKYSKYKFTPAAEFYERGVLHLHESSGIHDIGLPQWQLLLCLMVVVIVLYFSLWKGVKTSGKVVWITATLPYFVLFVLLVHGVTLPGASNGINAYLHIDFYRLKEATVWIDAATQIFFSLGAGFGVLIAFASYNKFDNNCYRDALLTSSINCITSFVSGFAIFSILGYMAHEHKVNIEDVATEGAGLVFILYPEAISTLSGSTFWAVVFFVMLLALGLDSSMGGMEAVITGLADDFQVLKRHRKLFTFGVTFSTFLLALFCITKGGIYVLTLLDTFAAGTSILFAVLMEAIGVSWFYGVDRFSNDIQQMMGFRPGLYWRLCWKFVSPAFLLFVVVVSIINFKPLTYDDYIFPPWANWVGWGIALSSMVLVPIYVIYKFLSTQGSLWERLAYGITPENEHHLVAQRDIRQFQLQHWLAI
Experimental: (§2) Inhibition of binding to the Dopamine Transporter (DAT) and Norepinephrine Transporter (NET) by MSI-1436 was determined in radioligand binding assays using human recombinant proteins expressed in CHO-K1 or MDCK cells, respectively. Membrane preparations were incubated with [^125I] RTI-55 (0.15 nM for DAT, 0.20 nM for NET) in the presence of 1436 (0.005 μM to 50 μM) for 3 hours at 4° C. IC50 values were determined as in PTP1B assays (See Table 2).

[4] = target: T2, Dopamine Transporter (DAT) (Homo sapiens, UniProt Q01959); test: Radioligand binding assay, [125I] RTI-55, Dopamine Transporter; settings: human recombinant, CHO-K1 cell membranes; [125I] RTI-55 0.15 nM; 3 hours at 4° C.; read-out: ˜IC50, inhibition of binding to DAT
T2 construct: expressed in transfected cells; host or cells: CHO-K1 cells (membrane preparations)
T2 sequence (Q01959 whole entry): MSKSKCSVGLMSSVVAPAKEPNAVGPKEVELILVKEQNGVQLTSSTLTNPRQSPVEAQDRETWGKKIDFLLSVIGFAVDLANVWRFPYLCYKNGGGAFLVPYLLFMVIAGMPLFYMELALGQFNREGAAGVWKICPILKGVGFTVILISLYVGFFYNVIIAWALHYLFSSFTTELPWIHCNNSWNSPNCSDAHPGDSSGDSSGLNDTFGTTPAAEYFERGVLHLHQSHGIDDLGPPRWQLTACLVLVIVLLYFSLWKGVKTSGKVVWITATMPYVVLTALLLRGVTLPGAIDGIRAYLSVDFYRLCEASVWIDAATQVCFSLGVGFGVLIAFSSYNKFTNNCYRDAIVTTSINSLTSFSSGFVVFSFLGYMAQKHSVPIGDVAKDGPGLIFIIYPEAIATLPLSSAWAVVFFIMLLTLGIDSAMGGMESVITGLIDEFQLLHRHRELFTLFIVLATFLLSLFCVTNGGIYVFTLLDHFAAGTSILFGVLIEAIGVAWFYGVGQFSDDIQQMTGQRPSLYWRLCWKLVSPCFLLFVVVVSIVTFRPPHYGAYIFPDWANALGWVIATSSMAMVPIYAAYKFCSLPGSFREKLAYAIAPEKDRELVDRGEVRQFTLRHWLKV
Experimental: as §2

[5] = tested on: male AKR/J mice on 10%, 45% or 60% fat kcal diet; test: Body composition of diet induced obese mice at end of study; type: in vivo; settings: i.p. q7dx4, 10 then 5 mg/kg
From the text: as §1, with “Pair-fed groups were allotted the exact amount of food consumed by 1436-treated groups in the 24 hours prior. All procedures involving mice were performed in accordance with protocols approved by the Institutional Animal Care and Use Committee.” left out
Body Composition. Body composition (percent moisture, fat, protein and ash) was determined according to methods described with modifications (Official Methods of Analysis of AOAC INTERNATIONAL, 2000). […] Protein was determined through the combustion method for nitrogen detection and a factor of 6.25 was used to convert percent nitrogen to percent protein. To determine ash, samples were ignited at 550° C. for 5 hours and quantified gravimetrically.

[6] = target: T3, CHO-K1 cells expressing dopamine transporters (Homo sapiens, UniProt Q01959); test: Cellular uptake of [3H] Dopamine; type: cell-based
T3 construct: expressed in transfected cells; host or cells: CHO-K1 cells
T3 sequence (Q01959 whole entry): as above
Experimental: (§3) After 10-minute incubations of the cells with radioactive ligands in the presence of compound at room temperature, quantitation of [^3H] Dopamine or [^3H] […] Significance criteria for antagonism was met if there was ≧50% inhibition of uptake as compared to the induced response of nomifensine (DAT) or desipramine (NET).

TCPTP = target: T4, TCPTP (Homo sapiens, UniProt P17706); test: TCPTP enzyme inhibition assay (DiFMUP substrate, spectrofluorimetric); type: biochemical
T4 construct: MDS Pharma (contract assay); host or cells: E. coli
T4 sequence (P17706 1-415): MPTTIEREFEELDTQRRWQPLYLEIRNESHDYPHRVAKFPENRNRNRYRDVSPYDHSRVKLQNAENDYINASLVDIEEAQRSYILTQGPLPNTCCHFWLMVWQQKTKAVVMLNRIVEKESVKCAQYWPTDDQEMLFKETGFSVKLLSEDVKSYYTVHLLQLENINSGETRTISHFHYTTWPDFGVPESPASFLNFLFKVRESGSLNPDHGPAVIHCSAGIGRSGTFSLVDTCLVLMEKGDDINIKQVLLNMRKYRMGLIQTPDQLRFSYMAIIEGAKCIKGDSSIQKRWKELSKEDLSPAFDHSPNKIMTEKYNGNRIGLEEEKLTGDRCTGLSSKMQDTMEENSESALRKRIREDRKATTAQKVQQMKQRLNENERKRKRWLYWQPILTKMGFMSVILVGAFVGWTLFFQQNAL
Experimental: In the PTP1B assay, phosphatase activity was quantitated through ELISA analysis of remaining tyrosine phosphopeptide after 30-minute incubations at room temperature with various concentrations of 1436 (0.05 μM to […]). […] The TCPTP assay required a 15-minute preincubation of enzyme and substrate at 37° C. followed by 60-minute incubations at 37° C. with various concentrations of 1436 (0.5 μM to 50 μM). TCPTP activity was assessed by spectrofluorimetric quantitation of DiFMU.

HepG2 cells = test: Insulin receptor-beta phosphorylation in HepG2 cells (immunoprecipitation, Western blot); type: cell-based
Experimental: HepG2 cells (immortalized hepatocyte cells) were treated with 10 nM insulin, […], neither, or both for either 30 minutes or 3 hours in vitro. […] No difference in the amounts of insulin receptor-beta (IR-beta) was noted (Panel A). […] This effect was slightly diminished at 3 hours.

ob/ob mice = test: Ex vivo liver IRS-1 phosphorylation in ob/ob mice (effect on PTP1B); settings: single dose 10 mg/kg i.p., 24 hours after treatment, livers harvested 2 min after portal vein insulin
Experimental: To examine the effect of MSI-1436 on PTP1B ex vivo, ob/ob mice were treated with either vehicle, MSI-1436 (single dose, 10 mg/kg, i.p.) or pair-fed control mice (n=4 per group). Twenty-four hours after the single treatment, mice were anesthetized and portal vein was exposed via an incision. Insulin or phosphate buffered saline (PBS) was injected into the portal vein and livers were harvested 2 min after the injection. Livers were lysed and lysates were immunoprecipitated with anti-insulin receptor substrate-1 (IRS-1) and then blotted for phosphotyrosine with the resultant blots representing phosphorylated insulin receptor substrate-1 (P-IRS-1). The blots were analyzed using imaging software.

[7] = target: T5, MDCK cells expressing norepinephrine transporters (Homo sapiens, UniProt P23975); test: Cellular uptake of [3H] Norepinephrine; type: cell-based
T5 construct: expressed in transfected cells; host or cells: MDCK cells
T5 sequence (P23975 whole entry): as the sequence (P23975 whole entry) above
Experimental: as §3

- IC50 [3]: 3.24 µM
- IC50 [4]: 1.74 µM
- inhibition at 0.05 µM ([6]; CHO-K1, 1436 0.05 μM): 1%
- inhibition at 0.25 µM ([6]; CHO-K1, 1436 0.25 μM): 39%
- inhibition at 0.5 µM ([6]; CHO-K1, 1436 0.5 μM): 57%
- inhibition at 2.5 µM ([6]; CHO-K1, 1436 2.5 μM): 81%
- inhibition at 5 µM ([6]; CHO-K1, 1436 5.0 μM): 94%
- IC50 ([6]; CHO-K1 cells, 10-minute incubation at room temperature, read-out: IC50, inhibition of Dopamine uptake): 0.422 µM
- inhibition of TCPTP at the concentrations tested (TCPTP; 1436 0.5 μM to 50 μM): no inhibition
- IC50 (TCPTP; human recombinant protein expressed in E. Coli, DiFMUP 10 μM, 60-minute incubation at 37° C., estimated): > 50 µM
- IC50 ([7]; MDCK cells, 10-minute incubation at room temperature, read-out: IC50, inhibition of Norepinephrine uptake): 0.718 µM
- inhibition at 0.05 µM ([7]; MDCK, 1436 0.05 μM): 22%
- inhibition at 0.25 µM ([7]; MDCK, 1436 0.25 μM): 26%
- inhibition at 0.5 µM ([7]; MDCK, 1436 0.5 μM): 33%
- inhibition at 2.5 µM ([7]; MDCK, 1436 2.5 μM): 78%
- inhibition at 5 µM ([7]; MDCK, 1436 5.0 μM): 95%
SMILES: CC(C)[C@@H](CC[C@@H](C)[C@H]1CC[C@H]2[C@@H]3[C@H](O)C[C@H]4C[C@@H](NCCCNCCCCNCCCN)CC[C@]4(C)[C@H]3CC[C@]12C)OS(=O)(=O)O [compound 1436]
- amount of fat in brown adipose tissue (BAT), histology [1]: lost all of the fat gained by the 60% diet
- amount of fat in white adipose tissue (WAT), histology [1]: lost all of the fat gained by the 60% diet
- body weight after treatment ([2]; 10%, 45% and 60% fat diet groups, i.p. q7dx4, first dose 10 mg/kg, remaining 5 mg/kg, three weeks): lost weight
- effect on weight loss versus pair-fed group ([2]; i.p. q7dx4, 10 then 5 mg/kg, greatest in 60% fat group (p value 0.013)): greater than the effect of diet alone
- % body fat (body composition at end of study) ([5]; all diets (10%, 45%, 60% fat)): lose significant % body fat
- loss of body fat versus pair-fed groups [5]: trend for greater loss of body fat
- IR-beta phosphorylation, insulin plus MSI-1436 versus insulin alone (HepG2 cells; 10 nM insulin and 10 µM MSI-1436, 30 minutes): increased IR-beta phosphorylation
- IR-beta phosphorylation, MSI-1436 alone (HepG2 cells; 10 µM MSI-1436 without insulin, 30 minutes or 3 hours): did not induce phosphorylation
- insulin-induced phosphorylation of IRS-1 in liver (ob/ob mice): enhanced the insulin-induced phosphorylation of IRS-1
